Results reported in ChEMBL document CHEMBL1201862, “PubChem BioAssay data set” (2004).
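Protocol summary: plate cells (96-well), add compound at 5 concentrations, incubate 48 h, interpolate endpoints linearly. GI50 = concentration required for 50% inhibition of growth.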 Active and inactive are the calls of the source. No stated cut-off is given here; in the data, active = GI50 up to about 1.1 µM and inactive = higher.

Assays:
Assay in all cases: growth of human tumour cells (NCI), 48 h
[1] = test system: A498
[2] = test system: CAKI-1
[3] = test system: CCRF-CEM
[4] = test system: COLO 205
[5] = test system: HCC 2998
[6] = test system: HT-29
[7] = test system: LOX IMVI
[8] = test system: MDA-MB-231
[9] = test system: Malme-3M
[10] = test system: OVCAR-3
[11] = test system: OVCAR-5
[12] = test system: RXF 393
[13] = test system: SK-MEL-5
[14] = test system: SK-OV-3
[15] = test system: SNB-75
[16] = test system: SR
[17] = test system: T47D
[18] = test system: UACC-257
[19] = test system: UACC-62

SMILES	GI50 [1]	GI50 [2]	GI50 [3]	GI50 [4]	GI50 [5]	GI50 [6]	GI50 [7]	GI50 [8]	GI50 [9]	GI50 [10]	GI50 [11]	GI50 [12]	GI50 [13]	GI50 [14]	GI50 [15]	GI50 [16]	GI50 [17]	GI50 [18]	GI50 [19]
Cn1cnc([N+](=O)[O-])c1SCC(=O)O	> 100 µM (inactive)	> 100 µM (inactive)	> 100 µM (inactive)	> 100 µM (inactive)	> 100 µM (inactive)	> 100 µM (inactive)	> 100 µM (inactive)	> 100 µM (inactive)	> 100 µM (inactive)	> 100 µM (inactive)	> 100 µM (inactive)	> 100 µM (inactive)	> 100 µM (inactive)	> 100 µM (inactive)	> 100 µM (inactive)	> 100 µM (inactive)	> 100 µM (inactive)	> 100 µM (inactive)	> 100 µM (inactive)
COc1ccc(N2N=NN(C(C)C)/C2=C(/Cl)c2nnnn2-c2ccc(OC)cc2)cc1	16 µM (inactive)	1.75 µM (inactive)	1.83 µM (inactive)	3.72 µM (inactive)	19.5 µM (inactive)	10.2 µM (inactive)	2 µM (inactive)	9.14 µM (inactive)	11.4 µM (inactive)	9.62 µM (inactive)	13.6 µM (inactive)	13.8 µM (inactive)	15.2 µM (inactive)	18.2 µM (inactive)	13 µM (inactive)	2.98 µM (inactive)	4.55 µM (inactive)	15.3 µM (inactive)	14.4 µM (inactive)
CC(C)/C(Cl)=N/OC(=O)Nc1ccc(Cl)c(Cl)c1	18 µM (inactive)	1.75 µM (inactive)	0.851 µM (active)	1.83 µM (inactive)	14.9 µM (inactive)	5.48 µM (inactive)	1.64 µM (inactive)	14.9 µM (inactive)	2.16 µM (inactive)	2.58 µM (inactive)	16 µM (inactive)	13.4 µM (inactive)	11.6 µM (inactive)	17.1 µM (inactive)	19.7 µM (inactive)	2.49 µM (inactive)	4.29 µM (inactive)	14.6 µM (inactive)	13.6 µM (inactive)
CSc1ncnc2c1cnn2Cc1cn(CCCCO)nn1	> 100 µM (inactive)	> 100 µM (inactive)	> 100 µM (inactive)	> 100 µM (inactive)	> 100 µM (inactive)	> 100 µM (inactive)	> 100 µM (inactive)	> 100 µM (inactive)	> 100 µM (inactive)	> 100 µM (inactive)	> 100 µM (inactive)	> 100 µM (inactive)	> 100 µM (inactive)	> 100 µM (inactive)	> 100 µM (inactive)	> 100 µM (inactive)	> 100 µM (inactive)	> 100 µM (inactive)	> 100 µM (inactive)
CC1(c2ccc(F)cc2)CC(c2ccc(F)cc2)=C(C#N)C(=C(C#N)C#N)N1 (centres undefined)	19.6 µM (inactive)	16 µM (inactive)	2.11 µM (inactive)	5.56 µM (inactive)	14.5 µM (inactive)	15.4 µM (inactive)	18.6 µM (inactive)	21.2 µM (inactive)	18.7 µM (inactive)	5.98 µM (inactive)	19.8 µM (inactive)	12.8 µM (inactive)	14.1 µM (inactive)	21.8 µM (inactive)	19.8 µM (inactive)	14.9 µM (inactive)	13.3 µM (inactive)	15.3 µM (inactive)	14.3 µM (inactive)
COC(=O)c1cc2cc3c(c(O)c2c(=O)o1)O[C@@]1(Oc2c(O)c4c(c(O)c2[C@H]1OC1CC(OC)C(O)C(C)O1)C(=O)C=C(OC)C4=O)[C@H](O)C3 (some centres undefined)	0.789 µM (active)	0.448 µM (active)	0.889 µM (active)	1.51 µM (inactive)	1.2 µM (inactive)	1.14 µM (inactive)	0.492 µM (active)	1.27 µM (inactive)	1.28 µM (inactive)	1.45 µM (inactive)	1.84 µM (inactive)	0.726 µM (active)	0.966 µM (active)	1.85 µM (inactive)	0.652 µM (active)	0.458 µM (active)	1.5 µM (inactive)	2 µM (inactive)	0.55 µM (active)
O=C(O)c1c(CC(Cc2ccc3c(c2)CCCC3)C(=O)O)ccc2c1CCCC2 (centres undefined)	> 100 µM (inactive)	> 100 µM (inactive)	> 100 µM (inactive)	> 100 µM (inactive)	> 100 µM (inactive)	> 100 µM (inactive)	> 100 µM (inactive)	> 100 µM (inactive)	> 100 µM (inactive)	> 100 µM (inactive)	> 100 µM (inactive)	> 100 µM (inactive)	> 100 µM (inactive)	> 100 µM (inactive)	> 100 µM (inactive)	> 100 µM (inactive)	> 100 µM (inactive)	> 100 µM (inactive)	> 100 µM (inactive)
CCCCCCCCCCCCCCCCOP(=O)(O)OCC(N)C(=O)O (centres undefined)	19.8 µM (inactive)	13 µM (inactive)	22.8 µM (inactive)	20.7 µM (inactive)	15.1 µM (inactive)	33 µM (inactive)	13.5 µM (inactive)	24.7 µM (inactive)	63.2 µM (inactive)	17.4 µM (inactive)	20.4 µM (inactive)	23.8 µM (inactive)	17.8 µM (inactive)	21.8 µM (inactive)	25.4 µM (inactive)	33 µM (inactive)	28.2 µM (inactive)	52.5 µM (inactive)	18 µM (inactive)
COC(=O)c1c2c(cc3c1CC1(C3)Cc3cc4c(c(C(C)=O)c3C1)CCC4)C=CC2 (centres undefined)	> 31.6 µM (inactive)	44.2 µM (inactive)	20.7 µM (inactive)	> 31.6 µM (inactive)	> 10 µM (inactive)	18.7 µM (inactive)	> 10 µM (inactive)	> 20.7 µM (inactive)	> 10 µM (inactive)	> 31.6 µM (inactive)	> 31.6 µM (inactive)	> 10 µM (inactive)	18.6 µM (inactive)	> 10 µM (inactive)	4.6 µM (inactive)	20.8 µM (inactive)	5.69 µM (inactive)	> 31.6 µM (inactive)	30.7 µM (inactive)
CC(C)(C)[Si](C)(C)OCC1OC(n2cnc3c(=O)[nH]c(N)nc32)C(O[Si](C)(C)C(C)(C)C)C1O[Si](C)(C)C(C)(C)C (centres undefined)	2.39 µM (inactive)	10.9 µM (inactive)	1.3 µM (inactive)	1.72 µM (inactive)	1.98 µM (inactive)	1.8 µM (inactive)	2.09 µM (inactive)	3.71 µM (inactive)	1.88 µM (inactive)	1.47 µM (inactive)	2.33 µM (inactive)	2.04 µM (inactive)	0.594 µM (active)	1.95 µM (inactive)	3.11 µM (inactive)	2.39 µM (inactive)	2.09 µM (inactive)	1.78 µM (inactive)	1.22 µM (inactive)
COc1ccc(N2C(=O)C(=O)N(c3ccccc3[N+](=O)[O-])C2=S)cc1	27 µM (inactive)	40 µM (inactive)	81.7 µM (inactive)	19.4 µM (inactive)	36.1 µM (inactive)	33.8 µM (inactive)	16.6 µM (inactive)	20.4 µM (inactive)	36.8 µM (inactive)		22.4 µM (inactive)	18 µM (inactive)	17.6 µM (inactive)	25.1 µM (inactive)	27.1 µM (inactive)	47.3 µM (inactive)	22.6 µM (inactive)	17.1 µM (inactive)	17.5 µM (inactive)
C[C@]12CC[C@@H]3c4cc(I)c(O)cc4CC[C@H]3[C@@H]1CC[C@@H]2O	8.43 µM (inactive)	8.63 µM (inactive)	3.15 µM (inactive)	18.5 µM (inactive)	8.81 µM (inactive)	17.3 µM (inactive)	4.17 µM (inactive)	5.25 µM (inactive)	9.89 µM (inactive)	3.43 µM (inactive)	12.7 µM (inactive)	6.07 µM (inactive)	3.18 µM (inactive)	4.25 µM (inactive)	3.17 µM (inactive)	3.1 µM (inactive)	8.55 µM (inactive)	8.61 µM (inactive)	
NCCCCNCCCN1CC1	0.319 µM (active)	0.0893 µM (active)	0.951 µM (active)	0.871 µM (active)	5.73 µM (inactive)	4.55 µM (inactive)	0.284 µM (active)	0.624 µM (active)	1.77 µM (inactive)	0.619 µM (active)	5.27 µM (inactive)	0.123 µM (active)	1.71 µM (inactive)	0.977 µM (active)	0.246 µM (active)	2.29 µM (inactive)	0.354 µM (active)	5.06 µM (inactive)	5.18 µM (inactive)
CC1=CC(=O)[C@@H](O)[C@]2(C)[C@H]3[C@@]4(O)OC[C@@]35[C@@H](C[C@@H]12)OC(=O)C(OC(=O)CC1=CCCC1)[C@H]5[C@@H](C)[C@H]4O (some centres undefined)	0.429 µM (active)	0.167 µM (active)	0.0197 µM (active)	0.24 µM (active)	0.04 µM (active)	0.0238 µM (active)	< 0.0177 µM (active)	0.0559 µM (active)	0.0164 µM (active)	0.0239 µM (active)	0.105 µM (active)	0.04 µM (active)	0.0167 µM (active)	0.551 µM (active)	0.0423 µM (active)	0.0168 µM (active)	0.0771 µM (active)	0.022 µM (active)	0.0383 µM (active)
